One may read the IC50 as the point on the concentration scale where inhibition reaches its midpoint.

Our source for the IC50 values is patent publication US10975084B2, “KDM5 inhibitors” (Merck Sharp & Dohme Corp., priority 2016, dated 2021).

This test deals with KDM5B (Homo sapiens (Human), UniProt Q9UGL1). In words: KDM5B TR-FRET Enzyme Activity Assay. It is filed as biochemical. Conditions: LANCE TR-FRET; 5 nM full-length recombinant KDM5B; ten point titration 100000 nM to 5.08 nM. The essentials:
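Full-length KDM5B from Sf21 cells (5 nM) was preincubated 30 min with compound in HEPES pH 7.3 buffer with ascorbate and 2 μM Fe(II). Reaction with 500 nM biotinylated H3K4Me3 peptide and 500 nM α-ketoglutarate ran 60 min. Product was detected by TR-FRET (Eu-anti-H3K4Me1-2/streptavidin-Dylight 650, 665/615 ratio); IC50 came from a 4-parameter fit.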

KDM5B, sequence (Q9UGL1 whole entry): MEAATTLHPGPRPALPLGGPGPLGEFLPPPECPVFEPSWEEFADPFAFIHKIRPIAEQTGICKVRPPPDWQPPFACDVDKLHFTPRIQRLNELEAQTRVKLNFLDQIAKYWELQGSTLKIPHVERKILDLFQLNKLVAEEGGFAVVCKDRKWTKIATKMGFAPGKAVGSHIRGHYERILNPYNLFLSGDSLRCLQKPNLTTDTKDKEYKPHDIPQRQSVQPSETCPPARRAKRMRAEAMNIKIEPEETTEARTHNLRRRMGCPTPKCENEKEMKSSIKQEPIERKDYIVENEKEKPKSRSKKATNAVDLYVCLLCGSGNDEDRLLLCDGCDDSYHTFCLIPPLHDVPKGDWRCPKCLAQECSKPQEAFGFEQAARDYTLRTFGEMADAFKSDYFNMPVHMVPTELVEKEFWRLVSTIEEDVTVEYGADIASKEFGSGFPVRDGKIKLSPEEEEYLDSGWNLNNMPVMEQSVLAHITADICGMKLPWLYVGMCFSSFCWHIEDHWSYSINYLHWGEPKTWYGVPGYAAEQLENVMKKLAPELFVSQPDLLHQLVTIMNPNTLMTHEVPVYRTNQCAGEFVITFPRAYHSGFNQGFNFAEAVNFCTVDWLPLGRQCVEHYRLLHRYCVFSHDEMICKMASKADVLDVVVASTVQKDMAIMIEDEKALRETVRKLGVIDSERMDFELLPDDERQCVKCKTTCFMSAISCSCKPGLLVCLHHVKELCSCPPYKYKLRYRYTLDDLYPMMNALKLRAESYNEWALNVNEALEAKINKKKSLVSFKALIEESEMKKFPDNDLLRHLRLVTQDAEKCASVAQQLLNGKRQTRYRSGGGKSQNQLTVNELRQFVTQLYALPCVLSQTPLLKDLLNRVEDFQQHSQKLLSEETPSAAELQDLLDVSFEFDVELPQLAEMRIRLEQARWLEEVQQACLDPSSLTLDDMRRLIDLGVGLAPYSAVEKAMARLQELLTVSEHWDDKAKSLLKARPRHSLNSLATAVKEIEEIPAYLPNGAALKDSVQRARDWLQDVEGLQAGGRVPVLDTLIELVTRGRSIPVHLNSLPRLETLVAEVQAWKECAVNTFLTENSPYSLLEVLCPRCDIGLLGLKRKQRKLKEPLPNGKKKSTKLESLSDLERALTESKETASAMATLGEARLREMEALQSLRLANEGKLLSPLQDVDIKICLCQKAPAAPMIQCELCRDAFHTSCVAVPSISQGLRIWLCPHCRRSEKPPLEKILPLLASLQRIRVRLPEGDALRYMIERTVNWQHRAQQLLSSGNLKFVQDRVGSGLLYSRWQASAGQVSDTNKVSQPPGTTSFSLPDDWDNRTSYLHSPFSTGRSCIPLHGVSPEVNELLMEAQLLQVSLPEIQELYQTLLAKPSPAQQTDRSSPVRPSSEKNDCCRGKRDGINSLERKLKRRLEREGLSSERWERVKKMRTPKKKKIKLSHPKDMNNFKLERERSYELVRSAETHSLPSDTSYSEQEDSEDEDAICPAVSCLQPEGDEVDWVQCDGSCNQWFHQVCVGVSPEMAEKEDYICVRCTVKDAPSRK

As to `CC(C)c1c(-c2ccc(N3CCN(C(C)C)CC3)cc2)[nH]c2ncnn2c1=O` [Example 11-93, 6-(1-methylethyl)-5-{4-[4-(1-methylethyl)piperazin-1-yl]phenyl}[1,2,4]triazolo[1,5-a]pyrimidin-7(4H)-one], the IC50 amounted to 15.5 nM.
Regarding `CC(C)c1c(-c2ccc(N3CCCC3)cc2)[nH]c2ncnn2c1=O` [Example 11-94, 6-(1-methylethyl)-5-(4-pyrrolidin-1-ylphenyl)[1,2,4]triazolo[1,5-a]pyrimidin-7(4H)-one], the IC50 stood at 20.1 nM.
With `CC(C)c1c(-c2ccc(-n3ccnn3)cc2)[nH]c2ncnn2c1=O` [Example 11-95, 6-(1-methylethyl)-5-[4-(1H-1,2,3-triazol-1-yl)phenyl][1,2,4]triazolo[1,5-a]pyrimidin-7(4H)-one], the IC50 is 8.59 nM.
Regarding `CC(C)c1c(-c2ccc(N3CCS(=O)(=O)CC3)cc2)[nH]c2ncnn2c1=O` [Example 11-96, 5-[4-(1,1-dioxidothiomorpholin-4-yl)phenyl]-6-(1-methylethyl)[1,2,4]triazolo[1,5-a]pyrimidin-7(4H)-one], the IC50 is 13.5 nM.
As for `CC(C)c1c(-c2ccc(-n3nccn3)cc2)[nH]c2ncnn2c1=O` [Example 11-97, 6-(1-methylethyl)-5-[4-(2H-1,2,3-triazol-2-yl)phenyl][1,2,4]triazolo[1,5-a]pyrimidin-7(4H)-one], the IC50 came to 32.4 nM.
Take `CC(C)c1c(-c2ccc(-n3cccn3)cc2F)[nH]c2ncnn2c1=O` [Example 11-98, 5-[2-fluoro-4-(1H-pyrazol-1-yl)phenyl]-6-(1-methylethyl)[1,2,4]triazolo[1,5-a]pyrimidin-7(4H)-one]: the IC50 is 122 nM.
Regarding `CC(C)c1c(-c2ccc(N)cc2)[nH]c2ncnn2c1=O` [Example 11-99, 5-(4-aminophenyl)-6-(1-methylethyl)[1,2,4]triazolo[1,5-a]pyrimidin-7(4H)-one], the IC50 was 32.9 nM.
In the case of `CC(C)c1c(-c2ccc(NS(C)(=O)=O)cc2)[nH]c2ncnn2c1=O` [Example 11-100, N-{4-[6-(1-methylethyl)-7-oxo-4,7-dihydro[1,2,4]triazolo[1,5-a]pyrimidin-5-yl]phenyl}methanesulfonamide] it was 20.1 nM; in that of `CC(C)c1c(-c2ccc3c(c2)CCC(=O)N3)[nH]c2ncnn2c1=O` [Example 11-101, 6-[6-(1-methylethyl)-7-oxo-4,7-dihydro[1,2,4]triazolo[1,5-a]pyrimidin-5-yl]-3,4-dihydroquinolin-2(1H)-one], 7.57 nM.
`CC(C)c1c(-c2ccc3c(c2)OCC(=O)N3)[nH]c2ncnn2c1=O` [Example 11-102, 7-[6-(1-methylethyl)-7-oxo-4,7-dihydro[1,2,4]triazolo[1,5-a]pyrimidin-5-yl]-2H-1,4-benzoxazin-3(4H)-one]: the IC50 worked out at 17.8 nM.
The value for `CC(C)c1c(-c2ccc(N(C)C)cc2)[nH]c2ncnn2c1=O` [Example 11-103, 5-[4-(dimethylamino)phenyl]-6-(1-methylethyl)[1,2,4]triazolo[1,5-a]pyrimidin-7(4H)-one] was 36.9 nM.
With `CNc1ccc(-c2[nH]c3ncnn3c(=O)c2C(C)C)cc1` [Example 11-104, 5-[4-(methylamino)phenyl]-6-(1-methylethyl)[1,2,4]triazolo[1,5-a]pyrimidin-7(4H)-one], the half-maximal inhibitory concentration (IC50) worked out at 43.8 nM.
In the case of `CC(C)c1c(-c2ccc3c(c2)OCCN3C)[nH]c2ncnn2c1=O` [Example 11-105, 5-(4-methyl-3,4-dihydro-2H-1,4-benzoxazin-7-yl)-6-(1-methylethyl)[1,2,4]triazolo[1,5-a]pyrimidin-7(4H)-one] it was 34.2 nM.
Turning to `CC(C)c1c(-c2ccc(N3CCN(C)CC3)cc2)[nH]c2ncnn2c1=O` [Example 11-106, 6-(1-methylethyl)-5-[4-(4-methylpiperazin-1-yl)phenyl][1,2,4]triazolo[1,5-a]pyrimidin-7(4H)-one], the IC50 was 16.6 nM.
Turning to `CC(C)c1c(-c2cnn(C(C)(C)CO)c2)[nH]c2ncnn2c1=O` [Example 11-107, 5-[1-(2-hydroxy-1,1-dimethylethyl)-1H-pyrazol-4-yl]-6-(1-methylethyl)[1,2,4]triazolo[1,5-a]pyrimidin-7(4H)-one], the IC50 turned out to be 5.08 nM.
In the case of `CC(C)c1c(-c2ccc(CN3CCOCC3)s2)[nH]c2ncnn2c1=O` [Example 11-108, 6-(1-methylethyl)-5-[5-(morpholin-4-ylmethyl)thiophen-2-yl][1,2,4]triazolo[1,5-a]pyrimidin-7(4H)-one] it was 5.08 nM.
As for `CC(C)c1c(-c2cnn(C3CCC3)c2)[nH]c2ncnn2c1=O` [Example 11-109, 5-(1-cyclobutyl-1H-pyrazol-4-yl)-6-(1-methylethyl)[1,2,4]triazolo[1,5-a]pyrimidin-7(4H)-one], the IC50 amounted to 5.08 nM.
The value for `CC(C)c1c(-c2cnn(Cc3cccs3)c2)[nH]c2ncnn2c1=O` [Example 11-110, 6-(1-methylethyl)-5-[1-(thiophen-2-ylmethyl)-1H-pyrazol-4-yl][1,2,4]triazolo[1,5-a]pyrimidin-7(4H)-one] was 6.7 nM.
In the case of `CC(C)c1c(-c2cnn(CCO)c2)[nH]c2ncnn2c1=O` [Example 11-111, 5-[1-(2-hydroxyethyl)-1H-pyrazol-4-yl]-6-(1-methylethyl)[1,2,4]triazolo[1,5-a]pyrimidin-7(4H)-one] it was 11.7 nM; in that of `CC(C)c1c(-c2cnn3c2CCC3)[nH]c2ncnn2c1=O` [Example 11-112, 5-(5,6-dihydro-4H-pyrrolo[1,2-b]pyrazol-3-yl)-6-(1-methylethyl)[1,2,4]triazolo[1,5-a]pyrimidin-7(4H)-one], 51.2 nM.
In the case of `CC(C)c1c(-c2cnc(-c3ccc(F)cc3)o2)[nH]c2ncnn2c1=O` [Example 11-113, 5-[2-(4-fluorophenyl)-1,3-oxazol-5-yl]-6-(1-methylethyl)[1,2,4]triazolo[1,5-a]pyrimidin-7(4H)-one] it was 17.3 nM; in that of `Cc1c(-c2[nH]c3ncnn3c(=O)c2C(C)C)cnn1-c1ccccc1` [Example 11-114, 6-(1-methylethyl)-5-(5-methyl-1-phenyl-1H-pyrazol-4-yl)[1,2,4]triazolo[1,5-a]pyrimidin-7(4H)-one], 337 nM.
`Cc1csc(-c2[nH]c3ncnn3c(=O)c2C(C)C)c1` [Example 11-115, 6-(1-methylethyl)-5-(4-methylthiophen-2-yl)[1,2,4]triazolo[1,5-a]pyrimidin-7(4H)-one]: the IC50 was 122 nM.
In the case of `Cc1nc(-c2ccccc2)sc1-c1[nH]c2ncnn2c(=O)c1C(C)C` [Example 11-116, 6-(1-methylethyl)-5-(4-methyl-2-phenyl-1,3-thiazol-5-yl)[1,2,4]triazolo[1,5-a]pyrimidin-7(4H)-one] it was 444 nM.
In the case of `Cc1ccc(-c2[nH]c3ncnn3c(=O)c2C(C)C)o1` [Example 11-117, 6-(1-methylethyl)-5-(5-methylfuran-2-yl)[1,2,4]triazolo[1,5-a]pyrimidin-7(4H)-one] it was 552 nM; in that of `CC(C)c1c(-c2ccc(N3CCNCC3)cc2)[nH]c2ncnn2c1=O` [Example 11-118, 6-(1-methylethyl)-5-(4-piperazin-1-ylphenyl)[1,2,4]triazolo[1,5-a]pyrimidin-7(4H)-one], 9.79 nM; in that of `CC(C)c1c(-c2ccc(N)c(F)c2)[nH]c2ncnn2c1=O` [Example 11-119, 5-(4-amino-3-fluorophenyl)-6-(1-methylethyl)[1,2,4]triazolo[1,5-a]pyrimidin-7(4H)-one], 27.5 nM.
